# Laboratory results reported in ChEMBL document CHEMBL1811859, “Second-generation sulfonamide inhibitors of D-glutamic acid-adding enzyme: activity optimisation with conformationally rigid analogues of D-glutamic acid” (Eur J Med Chem, 2011).
# Columns and labels:
# Micrococcus luteus = assay: Antimicrobial activity against Micrococcus luteus ATCC 9314 by broth dilution method; format: functional
# Escherichia coli [1] = assay: Inhibition of Escherichia coli MurD ligase assessed as residual activity at 1 mM after 30 mins
# Listeria innocua = assay: Antimicrobial activity against Listeria innocua ATCC 33090 by broth dilution method; format: functional
# Staphylococcus aureus [2] = assay: Antimicrobial activity against methicillin-resistant Staphylococcus aureus ATCC 43300 by broth dilution method; format: functional
# Proteus mirabilis = assay: Antimicrobial activity against Proteus mirabilis ATCC 29936 by broth dilution method; format: functional
# Enterococcus faecium = assay: Antimicrobial activity against Enterococcus faecium ATCC 19434 by broth dilution method; format: functional
# Listeria monocytogenes = assay: Antimicrobial activity against Listeria monocytogenes ATCC 14780 by broth dilution method; format: functional
# Enterococcus faecalis [3] = assay: Antimicrobial activity against Enterococcus faecalis ATCC 29212 by broth dilution method; format: functional
# Citrobacter freundii = assay: Antimicrobial activity against Citrobacter freundii ATCC 8090 by broth dilution method; format: functional
# Staphylococcus aureus [4] = assay: Antimicrobial activity against Staphylococcus aureus ATCC 25923 by broth dilution method; format: functional
# Klebsiella pneumoniae = assay: Antimicrobial activity against Klebsiella pneumoniae ATCC 13883 by broth dilution method; format: functional
# [5] = tested on: Staphylococcus epidermidis; assay: Antimicrobial activity against Staphylococcus epidermidis ATCC 12228 by broth dilution method; format: functional
# Streptococcus pneumoniae [6] = assay: Antimicrobial activity against Streptococcus pneumoniae ATCC 49619 by broth dilution method; format: functional
# Streptococcus pneumoniae [7] = assay: Antimicrobial activity against Streptococcus pneumoniae ATCC 33400 by broth dilution method; format: functional
# Escherichia coli [8] = assay: Antimicrobial activity against Escherichia coli ATCC 8739 by broth dilution method; format: functional
# Pseudomonas aeruginosa = assay: Antimicrobial activity against Pseudomonas aeruginosa ATCC 27853 by broth dilution method; format: functional
# Streptococcus pneumoniae [9] = assay: Antimicrobial activity against Streptococcus pneumoniae D39 by broth dilution method; format: functional
# Enterococcus hirae = assay: Antimicrobial activity against Enterococcus hirae ATCC 9790 by broth dilution method; format: functional
# Staphylococcus aureus [10] = assay: Antimicrobial activity against methicillin-resistant Staphylococcus aureus PL1 by broth dilution method; format: functional
# Bacillus subtilis = assay: Antimicrobial activity against Bacillus subtilis ATCC 6633 by broth dilution method; format: functional
# Enterococcus faecalis [11] = assay: Antimicrobial activity against Enterococcus faecalis ATCC 19433 by broth dilution method; format: functional
# Escherichia coli [12] = assay: Inhibition of Escherichia coli MurD ligase assessed as residual activity at 500 uM after 30 mins
Compound,MIC (Micrococcus luteus) [µg/mL],MIC (Listeria innocua) [µg/mL],MIC (Staphylococcus aureus [2]) [µg/mL],MIC (Proteus mirabilis) [µg/mL],MIC (Enterococcus faecium) [µg/mL],MIC (Listeria monocytogenes) [µg/mL],MIC (Enterococcus faecalis [3]) [µg/mL],MIC (Citrobacter freundii) [µg/mL],MIC (Staphylococcus aureus [4]) [µg/mL],MIC (Klebsiella pneumoniae) [µg/mL],MIC [5] [µg/mL],MIC (Streptococcus pneumoniae [6]) [µg/mL],MIC (Streptococcus pneumoniae [7]) [µg/mL],MIC (Escherichia coli [8]) [µg/mL],MIC (Pseudomonas aeruginosa) [µg/mL],MIC (Streptococcus pneumoniae [9]) [µg/mL],MIC (Enterococcus hirae) [µg/mL],MIC (Staphylococcus aureus [10]) [µg/mL],MIC (Bacillus subtilis) [µg/mL],MIC (Enterococcus faecalis [11]) [µg/mL],other results
N#Cc1ccc(COc2ccc3cc(S(=O)(=O)NC4CCC(C(=O)O)CC4C(=O)O)ccc3c2)c(F)c1 (racemic),> 512,> 512,> 512,> 512,> 512,> 512,> 512,> 512,> 512,> 512,> 512,> 512,> 512,> 512,> 512,> 512,> 512,> 512,> 512,> 512,Activity (Escherichia coli [1]): 14%
CCCCOc1ccc2cc(S(=O)(=O)N[C@H]3CCCC[C@H]3C(=O)O)ccc2c1,> 512,32,128,> 512,256,32,256,> 512,256,> 512,256,64,64,> 512,> 512,64,64,128,64,512,Activity (Escherichia coli [1]): 93%
CCCCOc1ccc2cc(S(=O)(=O)N3CCC(C(=O)O)CC3)ccc2c1,,,,,,,,,,,,,,,,,,,,,Activity (Escherichia coli [12]): 97%
N#Cc1ccc(COc2ccc3cc(S(=O)(=O)N[C@H]4CCCC[C@H]4C(=O)O)ccc3c2)c(F)c1,> 512,> 512,256,> 512,256,> 512,> 512,> 512,256,> 512,256,> 512,> 512,> 512,> 512,> 512,> 512,256,> 512,> 512,Activity (Escherichia coli [1]): 45%
N#Cc1ccc(COc2ccc3cc(S(=O)(=O)N[C@@H]4CCCC[C@H]4C(=O)O)ccc3c2)c(F)c1,> 512,> 512,> 512,> 512,> 512,> 512,> 512,> 512,> 512,> 512,> 512,> 512,> 512,> 512,> 512,> 512,> 512,> 512,> 512,> 512,Activity (Escherichia coli [1]): 88%
CCCCOc1ccc2cc(S(=O)(=O)Nc3ccc(O)cc3C(=O)O)ccc2c1,256,> 512,> 512,> 512,256,> 512,256,> 512,> 512,> 512,> 512,64,32,> 512,> 512,64,256,> 512,> 512,> 512,Activity (Escherichia coli [12]): 76%
CCCCOc1ccc2cc(S(=O)(=O)Nc3cc(C(=O)O)ccc3C(=O)O)ccc2c1,> 512,> 512,> 512,> 512,> 512,> 512,> 512,> 512,> 512,> 512,> 512,> 512,> 512,> 512,> 512,> 512,> 512,> 512,> 512,> 512,Activity (Escherichia coli [12]): 78%
N#Cc1ccc(COc2ccc3cc(S(=O)(=O)N4CCC(C(=O)O)CC4)ccc3c2)c(F)c1,,,,,,,,,,,,,,,,,,,,,Activity (Escherichia coli [12]): 94%
